# Source: the supplement of paper PMC10307832
# Key:
# Experiment in all cases: relative viability (nuclei count vs DMSO), 5 days (fraction); higher = more cells survive
# [1] = tested on: UMC-11
# Summary of the method: (§1)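 Dosing by pin tool came one day after lung cancer cell lines were seeded in 1536-well plates, using either one drug or a fixed anchor-drug dose plus five library-drug doses (not always all listed) in √10 steps. After 5 days, nuclei were counted on 4× images. Relative viability is treated-well nuclei count divided by vehicle-well nuclei count, and values are medians of duplicate plates.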
# [2] = tested on: CAL-12T
# Summary of the method: as §1
# [3] = tested on: LC-2-ad
# Summary of the method: as §1
# [4] = tested on: NCI-H2228
# Summary of the method: as §1
# [5] = tested on: RERF-LC-KJ
# Summary of the method: as §1
# [6] = tested on: NCI-H1755
# Summary of the method: as §1
# [7] = tested on: NCI-H2405
# Summary of the method: as §1
# [8] = tested on: NCI-H1944
# Summary of the method: as §1
# [9] = tested on: LU99A
# Summary of the method: as §1
# [10] = tested on: NCI-H2170
# Summary of the method: as §1
# [11] = tested on: NCI-H1395
# Summary of the method: as §1
# [12] = tested on: ChaGo-K-1
# Summary of the method: as §1
# [13] = tested on: NCI-H460
# Summary of the method: as §1
# [14] = tested on: HCC-366
# Summary of the method: as §1
# [15] = tested on: LOU-NH91
# Summary of the method: as §1
# [16] = tested on: NCI-H3122
# Summary of the method: as §1
# [17] = tested on: NCI-H2087
# Summary of the method: as §1
# [18] = tested on: NCI-H1651
# Summary of the method: as §1
# [19] = tested on: ABC-1
# Summary of the method: as §1
# [20] = tested on: PC-3 [JPC-3]
# Summary of the method: as §1
# [21] = tested on: HCC-78
# Summary of the method: as §1
# [22] = tested on: NCI-H1793
# Summary of the method: as §1
smiles,measurement,setting,value
Nc1ccn([C@@H]2O[C@H](CO)[C@@H](O)[C@@H]2O)c(=O)n1 [Cytarabine] + CS(=O)(=O)N1CCN(Cc2cc3nc(-c4cccc5[nH]ncc45)nc(N4CCOCC4)c3s2)CC1 [Pictilisib] (partner 1 µM),relative viability,[1]; first compound 0.005 µM,0.488
same,relative viability,[1]; first compound 0.01581 µM,0.411
same,relative viability,[1]; first compound 0.05 µM,0.318
same,relative viability,[1]; first compound 0.1581 µM,0.175
same,relative viability,[1]; first compound 0.5 µM,0.161
same,relative viability,[2]; first compound 0.005 µM,0.403
same,relative viability,[2]; first compound 0.01581 µM,0.357
same,relative viability,[2]; first compound 0.05 µM,0.31
same,relative viability,[2]; first compound 0.1581 µM,0.326
same,relative viability,[2]; first compound 0.5 µM,0.222
same,relative viability,[3]; first compound 0.005 µM,0.402
same,relative viability,[3]; first compound 0.01581 µM,0.419
same,relative viability,[3]; first compound 0.05 µM,0.361
same,relative viability,[3]; first compound 0.1581 µM,0.212
same,relative viability,[3]; first compound 0.5 µM,0.16
same,relative viability,[4]; first compound 0.005 µM,0.29
same,relative viability,[4]; first compound 0.01581 µM,0.188
same,relative viability,[4]; first compound 0.05 µM,0.399
same,relative viability,[4]; first compound 0.1581 µM,0.109
same,relative viability,[4]; first compound 0.5 µM,0.146
same,relative viability,[5]; first compound 0.005 µM,0.493
same,relative viability,[5]; first compound 0.01581 µM,0.459
same,relative viability,[5]; first compound 0.05 µM,0.487
same,relative viability,[5]; first compound 0.1581 µM,0.428
same,relative viability,[5]; first compound 0.5 µM,0.287
same,relative viability,[6]; first compound 0.005 µM,0.378
same,relative viability,[6]; first compound 0.01581 µM,0.417
same,relative viability,[6]; first compound 0.05 µM,0.359
same,relative viability,[6]; first compound 0.1581 µM,0.223
same,relative viability,[6]; first compound 0.5 µM,0.191
same,relative viability,[7]; first compound 0.005 µM,0.398
same,relative viability,[7]; first compound 0.01581 µM,0.334
same,relative viability,[7]; first compound 0.05 µM,0.319
same,relative viability,[7]; first compound 0.1581 µM,0.301
same,relative viability,[7]; first compound 0.5 µM,0.229
same,relative viability,[8]; first compound 0.005 µM,0.29
same,relative viability,[8]; first compound 0.01581 µM,0.267
same,relative viability,[8]; first compound 0.05 µM,0.236
same,relative viability,[8]; first compound 0.1581 µM,0.201
same,relative viability,[8]; first compound 0.5 µM,0.189
same,relative viability,[9]; first compound 0.005 µM,0.372
same,relative viability,[9]; first compound 0.01581 µM,0.305
same,relative viability,[9]; first compound 0.05 µM,0.282
same,relative viability,[9]; first compound 0.1581 µM,0.308
same,relative viability,[9]; first compound 0.5 µM,0.299
same,relative viability,[10]; first compound 0.01581 µM,0.257
same,relative viability,[10]; first compound 0.05 µM,0.235
same,relative viability,[10]; first compound 0.1581 µM,0.191
same,relative viability,[10]; first compound 0.5 µM,0.192
same,relative viability,[11]; first compound 0.005 µM,0.616
same,relative viability,[11]; first compound 0.01581 µM,0.564
same,relative viability,[11]; first compound 0.05 µM,0.391
same,relative viability,[11]; first compound 0.1581 µM,0.365
same,relative viability,[11]; first compound 0.5 µM,0.316
same,relative viability,[12]; first compound 0.005 µM,0.583
same,relative viability,[12]; first compound 0.01581 µM,0.459
same,relative viability,[12]; first compound 0.05 µM,0.284
same,relative viability,[12]; first compound 0.1581 µM,0.365
same,relative viability,[12]; first compound 0.5 µM,0.401
same,relative viability,[13]; first compound 0.005 µM,0.328
same,relative viability,[13]; first compound 0.01581 µM,0.322
same,relative viability,[13]; first compound 0.05 µM,0.226
same,relative viability,[13]; first compound 0.1581 µM,0.106
same,relative viability,[13]; first compound 0.5 µM,0.0854
same,relative viability,[14]; first compound 0.005 µM,0.134
same,relative viability,[14]; first compound 0.01581 µM,0.129
same,relative viability,[14]; first compound 0.05 µM,0.0867
same,relative viability,[14]; first compound 0.1581 µM,0.0754
same,relative viability,[14]; first compound 0.5 µM,0.0688
same,relative viability,[15]; first compound 0.005 µM,0.525
same,relative viability,[15]; first compound 0.01581 µM,0.56
same,relative viability,[15]; first compound 0.05 µM,0.489
same,relative viability,[15]; first compound 0.1581 µM,0.385
same,relative viability,[15]; first compound 0.5 µM,0.369
same,relative viability,[16]; first compound 0.005 µM,0.629
same,relative viability,[16]; first compound 0.01581 µM,0.494
same,relative viability,[16]; first compound 0.05 µM,0.61
same,relative viability,[16]; first compound 0.1581 µM,0.329
same,relative viability,[16]; first compound 0.5 µM,0.204
same,relative viability,[17]; first compound 0.005 µM,0.804
same,relative viability,[17]; first compound 0.01581 µM,0.751
same,relative viability,[17]; first compound 0.05 µM,0.805
same,relative viability,[17]; first compound 0.1581 µM,0.461
same,relative viability,[17]; first compound 0.5 µM,0.355
same,relative viability,[18]; first compound 0.005 µM,0.446
same,relative viability,[18]; first compound 0.01581 µM,0.522
same,relative viability,[18]; first compound 0.05 µM,0.533
same,relative viability,[18]; first compound 0.1581 µM,0.17
same,relative viability,[18]; first compound 0.5 µM,0.165
same,relative viability,[19]; first compound 0.005 µM,0.939
same,relative viability,[19]; first compound 0.01581 µM,0.679
same,relative viability,[19]; first compound 0.05 µM,0.698
same,relative viability,[19]; first compound 0.1581 µM,0.635
same,relative viability,[19]; first compound 0.5 µM,0.325
same,relative viability,[20]; first compound 0.005 µM,0.695
same,relative viability,[20]; first compound 0.01581 µM,0.673
same,relative viability,[20]; first compound 0.05 µM,0.647
same,relative viability,[20]; first compound 0.1581 µM,0.448
same,relative viability,[20]; first compound 0.5 µM,0.479
same,relative viability,[21]; first compound 0.005 µM,0.234
same,relative viability,[21]; first compound 0.01581 µM,0.196
same,relative viability,[21]; first compound 0.05 µM,0.139
same,relative viability,[21]; first compound 0.1581 µM,0.141
same,relative viability,[21]; first compound 0.5 µM,0.128
same,relative viability,[22]; first compound 0.005 µM,0.312
same,relative viability,[22]; first compound 0.01581 µM,0.29
same,relative viability,[22]; first compound 0.05 µM,0.383
same,relative viability,[22]; first compound 0.1581 µM,0.307
same,relative viability,[22]; first compound 0.5 µM,0.194
